From patent publication US20210332436A1, “STEM CELL-BASED MULTIPLEX METHODS AND COMPOSITIONS” (MEMORIAL SLOAN-KETTERING CANCER CENTER, priority 2018, published 2021) come the findings set out here.

The structures appear in SMILES notation.

The subject of assay [1] is day 35 MIX30 PFC cultures. As to the kind of experiment: Multiplex PFC WNT response assay (CHIR99021 treatment of pooled PFC cultures, stem cell proliferation/enrichment readout). Conditions: 3 μM for 10 days, vs untreated. Type of assay: cell-based, human. The text has this: In addition to probing developmental phenotypes related to cell fate specification and proliferation, the present multiplex platform also allows us to evaluate the cell-type specific activity of key molecular pathways. The WNT/βcatenin pathway is a critical regulator of stem cell proliferation and neurogenesis during cortical development (Hirabayashi et al., Development 131, 2791-2801 (2004); Munji et al., J Neurosci 31, 1676-1687 (2011); Chenn, Organogenesis 4, 76-80 (2008)) and is a central node among a network of autism-related genes (Packer, Mol Psychiatry, (2016); Krumm et al., Trends Neurosci 37, 95-105 (2014); Gilman et al., Neuron 70, 898-907 (2011)). It was therefore tested autism lines for the ability to respond to WNT/βcatenin signaling by treating day 35 MIX30 PFC cultures with the GSK3α/β inhibitor CHIR99021 (3 μM) for 10 days, using stem cell proliferation as an initial readout of WNT activity (Kim et al., Nat Neurosci 12, 1390-1397 (2009)) (FIG. 3a). […] Lineage specificity of the WNT-response phenotype was assessed by differentiating the MIX30 library to CD49d^+ cranial neural crest (CNC) precursors ([…] et al., Nature 531, 105-109 (2016)), whose specification is dependent on WNT/β catenin activity (Dorsky et al., Nature 396, 370-373 (1998)) (FIG. 3c, FIGS. 10d-10f). […] DNA was quantified using a fluorometer (Qubit 3.0, Thermo Q33216). […]

The subject of another assay is Day 20 PFC cultures. As to the kind of experiment: Single genotype analysis of WNT responsiveness during PFC development (proliferation Ki67/DAPI and cell-cycle re-entry Ki67+EdU+/Ki67+). Type of assay: cell-based, human. The method, then: FIGS. 15a-15d provide additional data related to WNT assays. FIG. 15a provides PFC WNT response of autism lines relative to a negative control (UMOD). WNT response is measured by relative change in stem cell enrichment versus an untreated control. Red bars indicate significant increases or decreases in WNT response (FDR<0.05). FIG. 15b provides efficiency of neural crest specification relative to a negative control (UMOD). Red bars indicate significant increases or decreases in WNT response (FDR<0.05). FIG. 15c provides schematic of quantification for zebrafish jaw development at 7 dpf. A straight line is drawn from the top of the eyes, and second line is then drawn to the middle of the upper jaw. The angle between the two lines (0) is measured using ImageJ. A cut-off value of −1 s.d. (red line) from the mean (green line) of the no injection group was used to define hypomorphic animals. Graphs show raw data that underlie the hypomorph quantification in FIG. 3e. p<0.0001 for group differences calculated by non-parametric Kruskall-Wallis test, followed by dunn's test for multiple comparisons CTNNB1 p=0.0007, ANKRD11 p=0.0013, CUL3 p=0.0073, KMT2C p=0.0007. dpf, Days post fertilization. FIG. 15d provides a single genotype analysis of WNT responsiveness during PFC development. […] Day 20 PFC cultures were treated with CHIR99021 (0.6 μM) for 2 days or left untreated. At day 22, cultures were pulsed with EdU using the EdU Click-iT system according to manufacturer protocol (ThermoFisher Scientific C10640). Briefly, cells were treated with EdU for 1 hour, dissociated with Accutase for 30 minutes at 37 C, and passaged onto laminin/fibronectin coated plates at a density of 200,000-400,000 cells/cm2 in the presence of ROCK inhibitor (Y-27632, 10 μM, Tocris 1254). Cell were fixed 18 hours later and fixed for immunocytochemistry. ImageJ was used for cell counting. Images were thresholded to define individual cells (particles) and cells were counted using the analyze particle function.

Where [2] appears, read: 5/5 class 1 lines compared to MEL1, 0.6 μM for 2 days.

Turning to `Cc1c[nH]c(-c2cnc(NCCNc3ccc(C#N)cn3)nc2-c2ccc(Cl)cc2Cl)n1` [CHIR99021], the “stem cell proliferation (readout of WNT activity)” value in assay [1] is reported as “enhanced stem cell proliferation”. Further, in the assay with Day 20 PFC cultures (setting [2]), the “proliferation response to CHIR (CHIR/Baseline, Ki67/DAPI)” value is reported as “blunted proliferation response” and the “rates of cell-cycle re-entry (Ki67+EdU+/Ki67+) in response to CHIR” value is “blunted response”. Further, the “rates of cell-cycle re-entry (Ki67+EdU+/Ki67+) in response to CHIR” value in the assay with Day 20 PFC cultures (control lines, 0.6 μM for 2 days) is “increased rates of cell-cycle re-entry”.
